Active and inactive are the calls of the source. The rule behind the calls is not given here.
Tests used:
[1] = Antioxidant activity assessed as reducing capacity of DTNB at 20 uM after 30 mins in presence of Cu2++; assay type: functional; set-up: scale not given: the % may be the effect or the level left
[2] = Antioxidant activity assessed as reducing capacity of Iodine solution at 0.25mM after 30 mins in presence of Cu2++; assay type: functional; set-up: scale not given: the % may be the effect or the level left
[3] = Antioxidant activity assessed as ABTS radical scavenging activity at 4 uM after 30 mins in presence of Cu2++; assay type: functional
[4] = test system: Radical scavenging activity; test: Antioxidant activity assessed as DPPH radical scavenging activity at 36 uM after 30 mins in presence of Cu2++; assay type: functional
[5] = Induction of ascorbic acid oxidation preincubated for 3 mins in presence of Cu2++; assay type: physicochemical; set-up: concentration or dose not given beside the values; conditions: 0.05 h
[6] = Induction of ascorbic acid oxidation preincubated for 30 mins in presence of Cu2++; assay type: physicochemical; set-up: concentration or dose not given beside the values; conditions: 0.5 h
[7] = Induction of ascorbic acid oxidation preincubated for 60 mins in presence of Cu2++; assay type: physicochemical; set-up: concentration or dose not given beside the values; conditions: 1 h
[8] = Induction of ascorbic acid oxidation preincubated for 300 mins in presence of Cu2++; assay type: physicochemical; set-up: concentration or dose not given beside the values; conditions: 5 h
[9] = Effect on CU2+-mediated superoxide-dependent cytochrome c reduction at 10 to 30 uM; assay type: physicochemical
[10] = Antioxidant activity assessed as ABTS radical scavenging activity after 30 mins in absence of Cu2+; assay type: functional
[11] = test system: Radical scavenging activity; test: Antioxidant activity assessed as DPPH radical scavenging activity after 40 mins in absence of Cu2+; assay type: functional
[12] = Antioxidant activity assessed as ABTS radical scavenging activity at 4 uM after 3 mins in presence of Cu2+; assay type: functional
[13] = test system: Radical scavenging activity; test: Antioxidant activity assessed as DPPH radical scavenging activity at 36 uM after 3 mins in presence of Cu2++; assay type: functional
[14] = Antioxidant activity assessed as reducing capacity of DTNB at 20 uM after 60 mins in presence of Cu2++; assay type: functional
[15] = Antioxidant activity assessed as reducing capacity of Iodine solution at 0.25 mM after 60 mins in presence of Cu2++; assay type: functional
[16] = Antioxidant activity assessed as reducing capacity of Iodine solution at 0.25 mM after 120 mins in presence of Cu2++; assay type: functional
[17] = Effect on CU2+-mediated superoxide-dependent lucigenin reduction by chemiluminescence assay at 10 to 30 uM; assay type: physicochemical

Activity [5] [%] | Activity [6] [%] | Activity [7] [%] | Activity [8] [%] | Activity [9] | Activity [17] | SMILES | Activity [1] [%] | Activity [2] [%] | Activity [3] [%] | Activity [4] [%] | Activity [10] | Activity [11] | Activity [12] | Activity [13] | Activity [14] | Activity [15] | Activity [16]
81.1 | 84.1 | 86.1 | 85.3 | Active | Active | N[C@@H](CCS)C(=O)O [L-HOMOCYSTEINE] | 40 | 30 | 31 | 72 | Dose-dependent effect | Dose-dependent effect | Active | Active | – | – | –
81.3 | 83.2 | 84.2 | 85.4 | Active | Active | N[C@@H](CCC(=O)N[C@@H](CS)C(=O)NCC(=O)O)C(=O)O [GLUTATHIONE] | 36 | 31 | 55 | 76 | Dose-dependent effect | Dose-dependent effect | Active | Active | – | – | –

Second part, the compound before the results:

SMILES | Activity [5] [%] | Activity [6] [%] | Activity [7] [%] | Activity [8] [%] | Activity [9] | Activity [17] | Activity [1] [%] | Activity [2] [%] | Activity [3] [%] | Activity [4] [%] | Activity [10] | Activity [11] | Activity [12] | Activity [13] | Activity [14] | Activity [15] | Activity [16]
N[C@@H](CCC(=O)N[C@@H](CS)C(=O)O)C(=O)O | 81.4 | 87.4 | 89.6 | 97.6 | Active | – | 26 | 24 | 29 | 54 | Dose-dependent effect | Dose-dependent effect | Active | Active | – | – | –
N[C@@H](CS)C(=O)NCC(=O)O | 79.8 | 92.28 | 94.31 | 94.33 | Active | Active | 0 | 20 | 33 | 88 | Dose-dependent effect | Dose-dependent effect | Active | Active | Active | Active | inactive
N[C@@H](CS)C(=O)O [CYSTEINE] | 74.35 | 77.34 | 80.35 | 80.36 | Active | – | 24 | 23 | 44 | 92 | Dose-dependent effect | Dose-dependent effect | Active | Active | – | – | –

Reference: ChEMBL document CHEMBL1142539, “Double edge redox-implications for the interaction between endogenous thiols and copper ions: In vitro studies” (Bioorg Med Chem, 2008)
